# Measurements published in US5110976A, “Insecticidal composition comprising more than one active ingredient” (priority 1985, dated 1992).
# How the values were obtained:
# Tribolium confusum [1] = test: Contact test on Tribolium confusum (Table 12); format: in vivo; conditions: Tribolium confusum, 24 h
# Outline: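 Compound in 1:2 oil/acetone impregnated onto 9 cm filter paper discs; after acetone evaporation, 15 insects per Petri dish exposed by contact, three replicates per dose. Mortality read at 24 hours and corrected by Abbott's formula.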
# Tetranychus urticae = test: Potter Tower spray on mite-infested leaves (Table 19); format: in vivo, mites (Tetranychus urticae); conditions: Tetranychus urticae, 24 h, mortality after 24 hours; read-out: approx. LD50
# Protocol: Leaves already infested with mites (Tetranychus urticae) were sprayed under Potter Tower. Mortality after 24 hours on the treated leaves was compared with the control.
# T. confusum = test: Activity as function of time, toxic symptoms (Table 16); format: in vivo, flour beetle (T. confusum), imagos
# Outline: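 T. confusum imagos exposed in Petri dishes to filter-paper discs impregnated with isomer solutions in 1:2 oil/acetone, acetone evaporated; 3 replicates of 15 insects per dose. Insects lying on their backs counted at successive time points, expressed as percent.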
# Colorado potato beetle = test: Topical test on Colorado potato beetle (Table 14); format: in vivo, Colorado potato beetle (Leptinotersa decemlineata), imago
# Protocol: In Table 14 the activity on Colorado potato beetle is shown.
# The test materials are dissolved in 2-ethoxyethanol (Cellosolve). One 0.3 μl drop of the solution is applied to the abdominal sterna of the imago. The treatment is carried out by using 2 parallels and 10 insects for each dose. […]
# Tribolium confusum [2] = test: Contact test, mixtures of Ia and Ib of various ratio (Table 13); format: in vivo, flour beetle (Tribolium confusum)
# Protocol: (§1) The active ingredient is dissolved in a 1:2 mixture of oil and acetone; filter paper discs (Whatman No. 1, diameter 9 cm) are impregnated with the solutions of the corresponding stereoisomers and enantiomer-pairs, respectively. The acetone is allowed to evaporate, whereupon the insects are exposed to filter papers discs placed in Petri-dishes. Three parallels are used on each dose and 15 insects are placed into each Petri-dish. The percental mortality is determined after 24 hours. The corrected percent mortality is calculated by means of the Abbot Formula.
# In Table 13 the insecticidal effect of mixtures of enantiomer-pairs Ia and Ib of various ratio is shown on flour beetle (Tribolium confusum). The test method is that disclosed in Example 43.
# Musca domestica [3] = test: Comparative contact test (Table 15); format: in vivo, house fly (Musca domestica), imago; conditions: 24 h
# Protocol: as §1
# (§2) The comparative test of Ia, Ib and a 40:60 mixture of Ia:Ib is carried out on bean weevil (Acanthoscelides obtectus), flour-beetle, (Tribolium confusum), house fly (Musca domestica) and sheep maggot fly (Lucillia sericata). The test method described is Example 41.
# Musca domestica [4] = test: Filter paper disc contact test (Table 11); format: in vivo, house fly (Musca domestica)
# Protocol: In Table 1 the activity of various stereoisomers of cypermethrin on the house fly (Musca domestica) is shown.
# as §1
# tribolium confusum [5] = test: Comparative contact test (Table 15); format: in vivo, flour-beetle (Tribolium confusum), imago; conditions: 24 h
# Protocol: as §1, §2
# Lucillia sericata = test: Comparative contact test (Table 15); format: in vivo, sheep maggot fly (Lucillia sericata), imago; set-up: key: % mortality after 24 h, Abbott-corrected; conditions: 1440 min
# Protocol: as §1, §2
# Acanthoscelides obtectus = test: Comparative contact test (Table 15); format: in vivo, bean weevil (Acanthoscelides obtectus), imago; conditions: Acanthoscelides obtectus, 24 h
# Protocol: as §1, §2
# Hyphantria cunea = test: Topical test on fall webworm (Table 18); format: in vivo, fall wetworm (Hyphantria cunea), L7-L8 larvae; conditions: for 24 hours' mortality: 1440 min
# Protocol: The active ingredients are dissolved in 2-ethoxy-ethanol and the solutions are applied in the form of 0.2 μl droplets onto the back of fall wetworm (Hyphantria cunea) of L7 -L8 larvae stage. The treated worms are placed on strawberry leaves in Petri-dishes. The test is carried out by using […], 2 parallels and 10 insects for each dose. The killed worms are counted after 24 hours and the percental mortality rate is calculated.
smiles,measurement,setting,value
CC1(C)C(C=C(Cl)Cl)C1C(=O)OC(C#N)c1cccc(Oc2ccccc2)c1 (stereo not shown) [Ia:Ib = 4:6],mortality at 110 µg/disc,Tribolium confusum [1]; 0.11 mg/disc,61%
same,mortality at 330 µg/disc,Tribolium confusum [1]; 0.33 mg/disc,89%
same,mortality at 1000 µg/disc,Tribolium confusum [1]; 1.00 mg/disc,100%
same,mortality at 3000 µg/disc,Tribolium confusum [1]; 3.00 mg/disc,100%
same,LC50,Tetranychus urticae,~0.06 µg/mL
same,% of insects showing toxic symptoms,T. confusum; 30 minutes,0%
same,% of insects showing toxic symptoms,"T. confusum; 30 minutes, 0.33 mg/disc",0%
same,% of insects showing toxic symptoms,"T. confusum; 30 minutes, 1.00 mg/disc",50%
same,% of insects showing toxic symptoms,"T. confusum; 30 minutes, 3.00 mg/disc",55%
same,% of insects showing toxic symptoms,T. confusum; 60 minutes,15%
same,% of insects showing toxic symptoms,"T. confusum; 60 minutes, 0.33 mg/disc",85%
same,% of insects showing toxic symptoms,"T. confusum; 60 minutes, 1.00 mg/disc",85%
same,% of insects showing toxic symptoms,"T. confusum; 60 minutes, 3.00 mg/disc",100%
same,% of insects showing toxic symptoms,T. confusum; 120 minutes,30%
same,% of insects showing toxic symptoms,"T. confusum; 120 minutes, 0.33 mg/disc",100%
same,% of insects showing toxic symptoms,"T. confusum; 120 minutes, 1.00 mg/disc",100%
same,% of insects showing toxic symptoms,"T. confusum; 120 minutes, 3.00 mg/disc",100%
same,% of insects showing toxic symptoms,T. confusum; 180 minutes,55%
same,% of insects showing toxic symptoms,"T. confusum; 180 minutes, 0.33 mg/disc",100%
same,% of insects showing toxic symptoms,"T. confusum; 180 minutes, 1.00 mg/disc",100%
same,% of insects showing toxic symptoms,"T. confusum; 180 minutes, 3.00 mg/disc",100%
same,24 hours' mortality %,Colorado potato beetle; 0.05 μg/beetle,45%
same,24 hours' mortality %,Colorado potato beetle; 0.10 μg/beetle,60%
same,24 hours' mortality %,Colorado potato beetle; 0.20 μg/beetle,70%
same,mortality at 0.4 µg/beetle,"Colorado potato beetle; Leptinotarsa decemlineata, topical, read-out: 24 hours' mortality %, 0.40 μg/beetle",80%
same,24 hours' mortality %,"Tribolium confusum [2]; 0.02 mg/disc, 1440 min",14%
same,24 hours' mortality %,"Tribolium confusum [2]; 0.06 mg/disc, 1440 min",53%
same,24 hours' mortality %,Tribolium confusum [2]; 0.25 mg/disc,100%
same,24 hours' mortality %,Tribolium confusum [2]; 1.00 mg/disc,100%
same,mortality at 20 µg/disc,Musca domestica [3]; 0.02 mg/disc,25%
same,mortality at 70 µg/disc,Musca domestica [3]; 0.07 mg/disc,45%
same,mortality at 220 µg/disc,Musca domestica [3]; 0.22 mg/disc,85%
same,mortality at 670 µg/disc,Musca domestica [3]; 0.67 mg/disc,100%
same,mortality at 2000 µg/disc,Musca domestica [3]; 2.0 mg/disc,100%
same,mortality at 6000 µg/disc,Musca domestica [3]; 6.0 mg/disc,100%
same,mortality at 40 µg/disc,"Musca domestica [4]; Musca domestica, 24 h, 0.04 mg/disc",41%
same,mortality at 110 µg/disc,"Musca domestica [4]; Musca domestica, 24 h, 0.11 mg/disc",81%
same,mortality at 330 µg/disc,"Musca domestica [4]; Musca domestica, 24 h, 0.33 mg/disc",100%
same,mortality at 1000 µg/disc,"Musca domestica [4]; Musca domestica, 24 h, 1.00 mg/disc",100%
same,mortality at 3000 µg/disc,"Musca domestica [4]; Musca domestica, 24 h, 3.00 mg/disc",100%
same,comparative activity,Musca domestica [4]; mixture versus Ia,corresponds to that of the pure isomer Ia
same,mortality at 20 µg/disc,tribolium confusum [5]; 0.02 mg/disc,16%
same,mortality at 70 µg/disc,tribolium confusum [5]; 0.07 mg/disc,80%
same,mortality at 220 µg/disc,tribolium confusum [5]; 0.22 mg/disc,100%
same,mortality at 670 µg/disc,tribolium confusum [5]; 0.67 mg/disc,100%
same,mortality at 2000 µg/disc,tribolium confusum [5]; 2.0 mg/disc,100%
same,mortality at 6000 µg/disc,tribolium confusum [5]; 6.0 mg/disc,100%
same,mortality,Lucillia sericata; 0.02 mg/disc,18
same,mortality,Lucillia sericata; 0.07 mg/disc,50
same,mortality,Lucillia sericata; 0.22 mg/disc,60
same,mortality,Lucillia sericata; 0.67 mg/disc,75
same,mortality,Lucillia sericata; 2.0 mg/disc,100
same,mortality,Lucillia sericata; 6.0 mg/disc,100
same,mortality at 20 µg/disc,Acanthoscelides obtectus; 0.02 mg/disc,30%
same,mortality at 70 µg/disc,Acanthoscelides obtectus; 0.07 mg/disc,55%
same,mortality at 220 µg/disc,Acanthoscelides obtectus; 0.22 mg/disc,90%
same,mortality at 670 µg/disc,Acanthoscelides obtectus; 0.67 mg/disc,100%
same,mortality at 2000 µg/disc,Acanthoscelides obtectus; 2.0 mg/disc,100%
same,mortality at 6000 µg/disc,Acanthoscelides obtectus; 6.0 mg/disc,100%
same,24 hours' mortality,Hyphantria cunea; 0.023 (μg/disc),40%
same,24 hours' mortality,Hyphantria cunea; 0.047 (μg/disc),50%
same,24 hours' mortality,Hyphantria cunea; 0.094 (μg/disc),55%
same,mortality at 0.188 µg/disc,"Hyphantria cunea; Hyphantria cunea, topical, 24 h, 0.188 (μg/disc)",65%
same,mortality at 0.375 µg/disc,"Hyphantria cunea; Hyphantria cunea, topical, 24 h, 0.375 (μg/disc)",75%
